Laboratory results: paper PMC11649115, “In vitro safety evaluation of dopamine D3R antagonist, R-VK4-116, as a potential medication for the treatment of opioid use disorder” (PLOS ONE, 2024)
Values joined by “and” are separate entries in the source; they are usually repeats but may differ in a detail not shown here. Identical values can stand only once. Like-named read-outs stand apart in the source and are kept apart here.

What was measured:
[1] = biological target: T1, MATE2-K (Homo sapiens, UniProt Q86VL8); test: Transporter mediated assay (substrate/inhibitor), MDCK-II cells; assay type: in vitro ADME
T1 construct: expressed in transfected cells; host or cells: MDCK-II cells
T1 sequence (Q86VL8 1-566 isoform Q86VL8-3): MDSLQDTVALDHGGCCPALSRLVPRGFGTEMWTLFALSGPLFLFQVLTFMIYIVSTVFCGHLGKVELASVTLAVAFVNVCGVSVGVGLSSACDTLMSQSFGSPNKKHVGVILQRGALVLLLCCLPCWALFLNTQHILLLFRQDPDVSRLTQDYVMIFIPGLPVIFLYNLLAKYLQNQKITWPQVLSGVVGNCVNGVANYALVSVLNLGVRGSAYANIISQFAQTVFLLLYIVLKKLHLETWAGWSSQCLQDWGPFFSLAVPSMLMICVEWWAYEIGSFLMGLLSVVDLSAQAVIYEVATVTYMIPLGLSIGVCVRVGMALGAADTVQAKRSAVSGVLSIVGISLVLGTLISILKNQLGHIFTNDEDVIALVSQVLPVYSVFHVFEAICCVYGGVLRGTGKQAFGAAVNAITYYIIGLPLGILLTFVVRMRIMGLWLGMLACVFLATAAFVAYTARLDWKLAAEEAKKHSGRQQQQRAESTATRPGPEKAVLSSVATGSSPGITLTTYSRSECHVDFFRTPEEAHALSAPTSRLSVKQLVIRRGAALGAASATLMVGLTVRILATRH
Method: The MDCK-II cells were treated to express the transporter of interest. […] For the uptake assay, the net transporter-mediated uptake-rate (V) of the substrate by each SLC transporter was calculated as follows: Transporter–mediatedupdaterate(pmol/min/cm^2)=(Cellularaccumulationincellsexpressingthetransporter)−(Meancellularaccumulationincontrolcells)/Surfacearea×incubationtime
Fold of activity and percent inhibition were determined as follows: Foldofactivity=(Meanuptakerate)transporterexpressingcells/(Meanuptakerate)controlcells Percentinhibition=100−100×(Transport‐mediatedupdaterate)withinhibitor/(Transport‐mediatedupdaterate)vehiclecontrol

[2] = biological target: T2, H1(h) (Homo sapiens, UniProt P35367); test: Cellular and nuclear receptor functional assay, antagonist effect; assay type: cell-based
T2 construct: Eurofins Cerep (France) and Eurofins Discovery (St. Charles, MO)
T2 sequence (P35367 whole entry): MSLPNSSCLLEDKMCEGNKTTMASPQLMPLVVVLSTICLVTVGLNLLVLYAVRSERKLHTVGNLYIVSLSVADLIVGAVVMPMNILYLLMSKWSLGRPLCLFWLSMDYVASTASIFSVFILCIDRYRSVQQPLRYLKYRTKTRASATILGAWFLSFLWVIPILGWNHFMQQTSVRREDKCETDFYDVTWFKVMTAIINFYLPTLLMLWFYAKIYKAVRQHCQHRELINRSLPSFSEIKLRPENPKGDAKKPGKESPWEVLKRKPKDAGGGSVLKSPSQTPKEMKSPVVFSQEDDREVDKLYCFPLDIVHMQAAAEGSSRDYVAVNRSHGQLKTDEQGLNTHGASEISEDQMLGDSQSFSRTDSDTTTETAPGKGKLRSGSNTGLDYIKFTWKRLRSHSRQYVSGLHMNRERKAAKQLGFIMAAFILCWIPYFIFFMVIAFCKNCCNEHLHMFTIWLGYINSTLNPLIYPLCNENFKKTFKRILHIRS
Method: (§1) The purpose of this study was to provide a first step in preliminary safety assessments by providing early identification of potential off-target interactions for the optimization of safety margins. This study was conducted by Eurofins Cerep (France) and Eurofins Discovery (St. Charles, MO). R-VK4-116 was tested in enzyme and uptake assay with 10 enzyme targets (Figs 4 and 5 in S1 File), and cellular and nuclear receptor functional assays with 24 receptor targets (Figs 5 and 6 in S1 File). Compound enzyme inhibition effect was calculated as a % inhibition of control enzyme activity. The cellular agonist effect was calculated as a % of the control response to a known reference agonist for each target, and the cellular antagonist effect was calculated as a % inhibition of the control reference agonist response for each target.

[3] = biological target: T3, α1A(h) (Homo sapiens, UniProt P35348); test: as above; assay type: cell-based
T3 construct: Eurofins Cerep (France) and Eurofins Discovery (St. Charles, MO)
T3 sequence (P35348 whole entry): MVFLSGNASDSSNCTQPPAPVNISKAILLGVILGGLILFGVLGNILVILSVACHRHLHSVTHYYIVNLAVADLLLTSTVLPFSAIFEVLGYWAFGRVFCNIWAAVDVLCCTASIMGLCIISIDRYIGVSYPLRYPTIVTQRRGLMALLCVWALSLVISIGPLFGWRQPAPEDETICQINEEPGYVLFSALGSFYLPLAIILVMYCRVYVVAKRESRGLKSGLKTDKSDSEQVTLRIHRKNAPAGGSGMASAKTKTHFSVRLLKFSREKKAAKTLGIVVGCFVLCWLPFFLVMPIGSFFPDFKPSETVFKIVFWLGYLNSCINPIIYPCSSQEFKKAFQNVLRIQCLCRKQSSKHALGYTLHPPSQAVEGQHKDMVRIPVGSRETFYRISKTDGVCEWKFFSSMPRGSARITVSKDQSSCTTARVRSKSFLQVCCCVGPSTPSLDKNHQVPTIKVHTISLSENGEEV
Method: as §1

[4] = biological target: T4, 5-HT2B(h) (Homo sapiens, UniProt P41595); test: as above; assay type: cell-based; conditions: 10 μM
T4 construct: Eurofins Cerep (France) and Eurofins Discovery (St. Charles, MO)
T4 sequence (P41595 whole entry): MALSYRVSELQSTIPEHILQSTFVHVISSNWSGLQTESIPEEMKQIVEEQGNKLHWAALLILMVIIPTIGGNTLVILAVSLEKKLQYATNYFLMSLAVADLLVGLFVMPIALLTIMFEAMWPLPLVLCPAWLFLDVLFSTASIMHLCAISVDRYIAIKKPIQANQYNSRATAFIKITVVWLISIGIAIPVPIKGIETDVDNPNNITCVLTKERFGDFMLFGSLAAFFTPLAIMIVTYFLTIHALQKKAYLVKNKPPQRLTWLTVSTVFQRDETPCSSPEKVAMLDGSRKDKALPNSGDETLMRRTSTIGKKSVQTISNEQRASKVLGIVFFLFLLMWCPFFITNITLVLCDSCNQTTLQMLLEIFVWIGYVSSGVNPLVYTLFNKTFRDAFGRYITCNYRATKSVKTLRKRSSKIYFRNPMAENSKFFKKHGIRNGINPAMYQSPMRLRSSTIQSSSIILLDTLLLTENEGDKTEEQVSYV
Method: as §1

[5] = biological target: T5, V1a(h) (Homo sapiens, UniProt P37288); test: as above; assay type: cell-based; conditions: 10 μM
T5 construct: Eurofins Cerep (France) and Eurofins Discovery (St. Charles, MO)
T5 sequence (P37288 whole entry): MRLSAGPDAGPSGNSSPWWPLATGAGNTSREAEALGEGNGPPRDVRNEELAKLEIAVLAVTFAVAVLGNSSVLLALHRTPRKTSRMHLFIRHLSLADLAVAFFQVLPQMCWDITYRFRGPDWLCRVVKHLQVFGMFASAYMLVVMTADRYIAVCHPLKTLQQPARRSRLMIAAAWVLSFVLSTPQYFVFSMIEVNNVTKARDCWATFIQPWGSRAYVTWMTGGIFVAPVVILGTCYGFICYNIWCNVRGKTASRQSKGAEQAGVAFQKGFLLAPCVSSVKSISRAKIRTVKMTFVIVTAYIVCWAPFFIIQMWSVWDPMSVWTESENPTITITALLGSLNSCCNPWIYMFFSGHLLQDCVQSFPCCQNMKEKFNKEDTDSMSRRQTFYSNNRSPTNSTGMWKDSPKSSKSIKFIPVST
Method: as §1

[6] = system: rat plasma proteins; test: Plasma protein binding, Sephadex G-25 gel filtration; assay type: in vitro ADME
Method: (§2) The gel filtration used solid-phase extraction columns containing hydrated gel filtration beads (Sephadex G-25). […] In this method, the amount of analyte accompanying the proteins (i.e., protein-bound R-VK4-116) before and after filtration was assayed for analyte concentration by LC-MS/MS.

[7] = as above; assay type: in vitro ADME; conditions: plasma; for fraction unbound at 2 h, 0.5 μM: nominal 0.5 μM; for fraction unbound at 2 h, 1 μM: nominal 1 μM
Method: as §2

[8] = system: dog plasma proteins; test: as above; assay type: in vitro ADME
Method: as §2

[9] = dog, read-out: % Bound, Mean ± SD (converted)
[10] = rat, read-out: % Bound (converted)
[11] = rat, read-out: % Bound, Mean ± SD (converted)

CCc1cc(Cl)c(OC)c(N2CCN(CC(O)CCNC(=O)c3cc4ccccc4[nH]3)CC2)c1 (centres unmarked) [R-VK4-116, N-(4-(4-(3-chloro-5-ethyl-2-methoxyphenyl)piperazin-1-yl)-3-hydroxybutyl)-1H-indole-2-carboxamide]
fold difference in mean uptake rate (substrate test) ([1]; 1 μM, transporter cells vs control cells): < 2 fold
inhibition at 10 µM ([1]; human, polarized monolayer of MDCK-II cells expressing MATE2-K, 0.1% BSA, 10 μM): 37.8 ± 9.26%
inhibition at 10 µM [2]: 86.1%
inhibition at 10 µM [3]: 82.9%
antagonist effect [4]: 44.6%
antagonist effect [5]: 27.8%
% Bound ([6]; nominal 0.5 μM): 79.3% and 86.7%
Ratio [R-VK4-116] Before Filtration / Eluate ([6]; nominal 0.5 μM): 1.18 and 1.20
Ratio [R-VK4-116] Before Filtration / Eluate, Mean ± SD ([6]; nominal 0.5 μM): 1.19 ± 0.01
[R-VK4-116] Before Filtration ([6]; nominal 0.5 μM): 0.631 µM and 0.630 µM
[R-VK4-116] In Sephadex G-25 Eluate ([6]; nominal 0.5 μM): 0.533 µM and 0.535 µM and 0.525 µM
% Bound ([6]; nominal 1 μM): 93.9% and 93.2%
Ratio [R-VK4-116] Before Filtration / Eluate ([6]; nominal 1 μM): 1.63 and 1.60 and 1.58
Ratio [R-VK4-116] Before Filtration / Eluate, Mean ± SD ([6]; nominal 1 μM): 1.60 ± 0.02
[R-VK4-116] Before Filtration ([6]; nominal 1 μM): 1.03 µM and 1.01 µM and 1.02 µM
[R-VK4-116] In Sephadex G-25 Eluate ([6]; nominal 1 μM): 0.632 µM and 0.647 µM
fraction unbound at 2 h, 0.5 μM [7, 9]: 0.164
fraction unbound at 2 h, 1 μM [7, 9]: 0.173
fraction unbound at 2 h, 0.5 μM [7, 10]: 0.164
fraction unbound at 2 h, 0.5 μM [7, 11]: 0.168
fraction unbound at 2 h, 1 μM [7, 10]: 0.086
fraction unbound at 2 h, 1 μM [7, 11]: 0.072
% Bound ([8]; nominal 0.5 μM): 92.1% and 80.8% and 77.9%
Ratio [R-VK4-116] Before Filtration / Eluate ([8]; nominal 0.5 μM): 1.25 and 1.24
Ratio [R-VK4-116] Before Filtration / Eluate, Mean ± SD ([8]; nominal 0.5 μM): 1.25 ± 0.01
[R-VK4-116] Before Filtration ([8]; nominal 0.5 μM): 0.618 µM and 0.616 µM and 0.609 µM
[R-VK4-116] In Sephadex G-25 Eluate ([8]; nominal 0.5 μM): 0.495 µM and 0.493 µM and 0.491 µM
% Bound ([8]; nominal 1 μM): 73.3% and 92.5% and 82.4%
Ratio [R-VK4-116] Before Filtration / Eluate ([8]; nominal 1 μM): 1.68 and 1.51 and 1.77
Ratio [R-VK4-116] Before Filtration / Eluate, Mean ± SD ([8]; nominal 1 μM): 1.65 ± 0.13
[R-VK4-116] Before Filtration ([8]; nominal 1 μM): 1.05 µM and 1.07 µM
[R-VK4-116] In Sephadex G-25 Eluate ([8]; nominal 1 μM): 0.626 µM and 0.707 µM and 0.604 µM
